Here are results for 21 compounds from US10316017B2, “COT modulators and methods of use thereof” (Gilead Sciences, Inc., priority 2015, dated 2019).

The target in assay [1] is T1, human Cot catalytic domain (30-397 amino acids) (Homo sapiens, UniProt P41279).
T1 construct: Purified recombinant human Cot catalytic domain (30-397 amino acids) was purchased from Cama Biosciences; purchased Cama Biosciences (so in the source)
Description: High Throughput Cot Biochemical Assay (KinEASE TR-FRET). The settings on record: Cot biochemical HTRF (KinEASE TR-FRET) assay; read-out: IC50 HTRF. The essentials: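 First, purified human Cot (aa 30-397) at 5 nM phosphorylates an XL665-labeled STK3 peptide (1 μM) at 400 μM ATP, pH 7.0, 0.1% DMSO. Then a europium-conjugated phospho-specific antibody binds the product, giving the TR-FRET signal.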
In general terms: TR-FRET usually uses a lanthanide donor and a delayed reading to cut background.

Assay [2] concerns TNFα production in LPS-stimulated human monocytes. The assay is described as follows: Cot Monocyte TNFα Cell Based Assay. The settings on record: Homo sapiens, Monocyte, TNFα in LPS-stimulated human monocytes; read-out: EC50 TNF. An outline of the steps: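 5,000 cells/well; cmpd 1 h, 37 °C, 0.5% DMSO final; LPS 50 pg/ml, 4 h, 37 °C; media TNFα by HTRF sandwich (cryptate/XL665), RT overnight; % control vs unstimulated/stimulated wells.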

T1 sequence (P41279 30-397): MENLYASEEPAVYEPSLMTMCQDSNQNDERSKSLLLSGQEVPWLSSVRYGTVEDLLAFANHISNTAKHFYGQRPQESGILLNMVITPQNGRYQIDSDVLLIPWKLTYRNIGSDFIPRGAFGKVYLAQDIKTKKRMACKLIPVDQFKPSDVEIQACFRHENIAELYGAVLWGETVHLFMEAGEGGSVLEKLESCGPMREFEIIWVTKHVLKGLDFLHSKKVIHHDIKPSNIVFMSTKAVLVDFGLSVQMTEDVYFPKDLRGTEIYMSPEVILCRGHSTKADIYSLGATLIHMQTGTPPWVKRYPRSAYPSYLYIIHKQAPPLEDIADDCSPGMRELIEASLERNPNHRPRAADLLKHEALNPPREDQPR

For the compound `C[C@@H](Nc1c(C#N)cnc2c(Cl)cc(N[C@@H](c3ccccc3)c3cn(C4CCN(C(C)(C)C)CC4)nn3)cc12)c1ccccc1` [Example 569, 6-(((S)-(1-(1-(tert-butyl)piperidin-4-yl)-1H-1,2,3-triazol-4-yl)(phenyl)methyl)amino)-8-chloro-4-(((R)-1-phenylethyl)amino)quinoline-3-carbonitrile], in assay [1], the IC50 was 7 nM. In addition, the EC50 in assay [2] amounted to 721 nM.
For `CC(C)n1cc([C@@H](Nc2cc(Cl)c3ncc(C#N)c(Nc4ccc(F)c(Cl)c4)c3c2)c2cccc(CN3CCCC3)c2)nn1` [Example 570, (S)-8-chloro-4-((3-chloro-4-fluorophenyl)amino)-6-(((1-isopropyl-1H-1,2,3-triazol-4-yl) (3-(pyrrolidin-1-ylmethyl)phenyl)methyl)amino) quinoline-3-carbonitrile], in that order: 13 nM and 207 nM.
Consider `C[C@@H](Nc1c(C#N)cnc2c(Cl)cc(N[C@@H](c3cccc(C(=O)N(C)C)c3)c3cn(C4CCN(C(C)(C)C)CC4)nn3)cc12)c1ccccc1` [Example 571, 3-((S)-(1-(1-(tert-butyl)piperidin-4-yl)-1H-1,2,3-triazol-4-yl)((8-chloro-3-cyano-4-(((R)-1-phenylethyl)amino)quinolin-6-yl)amino)methyl)-N,N-dimethylbenzamide], for which the IC50 in assay [1] is 6 nM. Further, the EC50 in assay [2] amounted to 382 nM.
Turning to `CN(C)C(=O)c1cccc([C@H](Nc2cc(Cl)c3ncc(C#N)c(Nc4ccc(Cl)c(Cl)c4F)c3c2)c2cn(C3CCN(C(C)(C)C)CC3)nn2)c1` [Example 572, (S)-3-((1-(1-(tert-butyl)piperidin-4-yl)-1H-1,2,3-triazol-4-yl)((8-chloro-3-cyano-4-((3,4-dichloro-2-fluorophenyl)amino)quinolin-6-yl)amino)methyl)-N,N-dimethylbenzamide], the IC50 in assay [1] worked out at 2 nM. In assay [2], the half-maximal effective concentration (EC50) turned out to be 111 nM.
As for `CN(C)C(=O)c1cccc([C@H](Nc2cc(Cl)c3ncc(C#N)c(Nc4ccc(Cl)c(Cl)c4F)c3c2)c2c[nH]nn2)c1` [Example 573, (S)-3-(((8-chloro-3-cyano-4-((3,4-dichloro-2-fluorophenyl)amino)quinolin-6-yl)amino)(1H-1,2,3-triazol-4-yl)methyl)-N,N-dimethylbenzamide], the IC50 in assay [1] stood at 10 nM. The EC50 in assay [2] amounted to 462 nM.
As for `N#Cc1cnc2c(Cl)cc(N[C@@H](c3ccccc3)c3cn(C4C5CN(C6COC6)CC54)nn3)cc2c1Nc1ccc(F)c(Cl)c1` (stereo partly drawn) [Example 574, 8-chloro-4-((3-chloro-4-fluorophenyl)amino)-6-(((1S)-(1-(3-(oxetan-3-yl)-3-azabicyclo[3.1.0]hexan-6-yl)-1H-1,2,3-triazol-4-yl)(phenyl)methyl)amino) quinoline-3-carbonitrile], the IC50 in assay [1] is 42 nM. The EC50 in assay [2] came to 161 nM.
Turning to `N#Cc1cnc2c(Cl)cc(N[C@@H](c3cccc(CN4CCCC4)c3)c3c[nH]nn3)cc2c1Nc1ccc(F)c(Cl)c1` [Example 575, (S)-8-chloro-4-((3-chloro-4-fluorophenyl)amino)-6-(((3-(pyrrolidin-1-ylmethyl)phenyl) (1H-1,2,3-triazol-4-yl)methyl)amino)quinoline-3-carbonitrile], the IC50 in assay [1] was determined as 10 nM. Also, the EC50 in assay [2] came to 429 nM.
Consider `CCN1CC2C(C1)C2n1cc([C@@H](Nc2cc(Cl)c3ncc(C#N)c(Nc4ccc(F)c(Cl)c4)c3c2)c2ccccc2)nn1` (stereo partly drawn) [Example 576, 8-chloro-4-((3-chloro-4-fluorophenyl)amino)-6-(((1S)-(1-(3-ethyl-3-azabicyclo[3.1.0]hexan-6-yl)-1H-1,2,3-triazol-4-yl)(phenyl)methyl)amino) quinoline-3-carbonitrile], for which, in assay [1], the IC50 was 2 nM. Besides, the EC50 in assay [2] stood at 72 nM.
Take `N#Cc1cnc2c(Cl)cc(N[C@@H](c3ccccc3)c3cn(C4C5CNCC54)nn3)cc2c1Nc1ccc(F)c(Cl)c1` (stereo partly drawn) [Example 577, 6-(((1S)-(1-(3-azabicyclo[3.1.0]hexan-6-yl)-1H-1,2,3-triazo1-4-yl)(phenyl)methyl)amino)-8-chloro-4-((3-chloro-4-fluorophenyl)amino)quinoline-3-carbonitrile]: the IC50 in assay [1] is 3 nM. Also, the EC50 in assay [2] stood at 38 nM.
Consider `C[C@@H](Nc1c(C#N)cnc2c(Cl)cc(N[C@@H](c3cccc(C(=O)N(C)C)c3)c3c[nH]nn3)cc12)c1ccccc1` [Example 578, 3-((S)-((8-chloro-3-cyano-4-(((R)-1-phenylethyl)amino)quinolin-6-yl)amino)(1H-1,2,3-triazol-4-yl)methyl)-N,N-dimethylbenzamide], for which the IC50 in assay [1] stood at 13 nM. Further, the EC50 in assay [2] is 2150 nM.
For the compound `CC(C)n1cc([C@@H](Nc2cc(Cl)c3ncc(C#N)c(N[C@H](C)c4ccccc4)c3c2)c2cccc(C(=O)N(C)C)c2)nn1` [Example 579, 3-((S)-((8-chloro-3-cyano-4-(((R)-1-phenylethyl)amino)quinolin-6-yl)amino)(1-isopropyl-1H-1,2,3-triazol-4-yl)methyl)-N,N-dimethylbenzamide], the IC50 in assay [1] came out at 8 nM. Also, the EC50 in assay [2] came to 713 nM.
For `CC(C)(C)N1CCC(n2cc([C@@H](Nc3cc(Cl)c4ncc(C#N)c(NN5CCOCC5)c4c3)c3ccccc3)nn2)CC1` [Example 580, (S)-6-(((1-(1-(tert-butyl)piperidin-4-yl)-1H-1,2,3-triazol-4-yl)(phenyl)methyl)amino)-8-chloro-4-(morpholinoamino)quinoline-3-carbonitrile], in that order: 287 nM and 1590 nM.
Take `CC(C)(C)N1CCC(n2cc([C@@H](Nc3cc(Cl)c4ncc(C#N)c(N[C@H]5CCc6ccccc65)c4c3)c3ccccc3)nn2)CC1` [Example 581, 6-(((S)-(1-(1-(tert-butyl)piperidin-4-yl)-1H-1,2,3-triazol-4-yl)(phenyl)methyl)amino)-8-chloro-4-(((S)-2,3-dihydro-1H-inden-1-yl)amino)quinoline-3-carbonitrile]: the IC50 in assay [1] amounted to 333 nM. Moreover, the EC50 in assay [2] is 4220 nM.
For `CC(C)(C)N1CCC(n2cc([C@@H](Nc3cc(Cl)c4ncc(C#N)c(N[C@@H]5CCc6ccccc65)c4c3)c3ccccc3)nn2)CC1` [Example 583, 6-(((S)-(1-(1-(tert-butyl)piperidin-4-yl)-1H-1,2,3-triazol-4-yl)(phenyl)methyl)amino)-8-chloro-4-(((R)-2,3-dihydro-1H-inden-1-yl)amino)quinoline-3-carbonitrile], in that order: 1000 nM and 4360 nM.
In the case of `CC(C)(C)N1CCC(n2cc([C@@H](Nc3cc(Cl)c4ncc(C#N)c(Nc5cnc(F)c(F)c5)c4c3)c3ccccc3)nn2)CC1` [Example 584, (S)-6-(((1-(1-(tert-butyl)piperidin-4-yl)-1H-1,2,3-triazol-4-yl)(phenyl)methyl)amino)-8-chloro-4-((5,6-difluoropyridin-3-yl)amino)quinoline-3-carbonitrile], the IC50 in assay [1] was 10 nM. Further, in assay [2], the EC50 was found to be 403 nM.
Take `Cc1ccccc1[C@@H](C)Nc1c(C#N)cnc2c(Cl)cc(N[C@@H](c3ccccc3)c3cn(C4CCN(C(C)(C)C)CC4)nn3)cc12` [Example 585, 6-(((S)-(1-(1-(tert-butyl)piperidin-4-yl)-1H-1,2,3-triazol-4-yl)(phenyl)methyl)amino)-8-chloro-4-(((R)-1-(o-tolyl)ethyl)amino)quinoline-3-carbonitrile]: in assay [1], the IC50 was 16 nM. Also, in assay [2], the EC50 was 427 nM.
For `CC[C@H](C)Nc1c(C#N)cnc2c(Cl)cc(N[C@@H](c3ccccc3)c3cn(C(C)C)nn3)cc12` [Example 586, 4-(((S)-sec-butyl)amino)-8-chloro-6-(((S)-(1-isopropyl-1H-1,2,3-triazol-4-yl)(phenyl)methyl)amino) quinoline-3-carbonitrile], the IC50 in assay [1] was 892 nM. In addition, the EC50 in assay [2] turned out to be 8560 nM.
Regarding `CC[C@H](C)Nc1c(C#N)cnc2c(Cl)cc(N[C@@H](c3ccccc3)c3cn(C4CCN(C(C)(C)C)CC4)nn3)cc12` [Example 587, 4-(((S)-sec-butyl)amino)-6-(((S)-(1-(1-(tert-butyl)piperidin-4-yl)-1H-1,2,3-triazol-4-yl)(phenyl)methyl)amino)-8-chloroquinoline-3-carbonitrile], the IC50 in assay [1] was determined as 144 nM. Further, in assay [2], the EC50 came to 3900 nM.
`CC(C)n1cc([C@@H](Nc2cc(Cl)c3ncc(C#N)c(N[C@H](C)c4ccccc4)c3c2)c2ccccc2)nn1` [Example 588, 8-chloro-6-(((S)-(1-isopropyl-1H-1,2,3-triazol-4-yl)(phenyl)methyl)amino)-4-(((R)-1-phenylethyl)amino) quinoline-3-carbonitrile]: in assay [1], the IC50 is 17 nM. The EC50 in assay [2] turned out to be 1020 nM.
As to `CC[C@@H](C)Nc1c(C#N)cnc2c(Cl)cc(N[C@@H](c3ccccc3)c3cn(C(C)C)nn3)cc12` [Example 589, 4-(((R)-sec-butyl)amino)-8-chloro-6-(((S)-(1-isopropyl-1H-1,2,3-triazol-4-yl)(phenyl)methyl)amino)quinoline-3-carbonitrile], in assay [1], the IC50 worked out at 480 nM. Further, in assay [2], the EC50 turned out to be 8440 nM.
For `CC[C@@H](C)Nc1c(C#N)cnc2c(Cl)cc(N[C@@H](c3ccccc3)c3cn(C4CCN(C(C)(C)C)CC4)nn3)cc12` [Example 590, 4-(((R)-sec-butyl)amino)-6-(((S)-(1-(1-(tert-butyl)piperidin-4-yl)-1H-1,2,3-triazol-4-yl)(phenyl)methyl)amino)-8-chloroquinoline-3-carbonitrile], in assay [1], the IC50 came to 131 nM. Also, the EC50 in assay [2] is 3520 nM.

Usually IC50 stands for the concentration that inhibits the measured activity by half. As usually defined, the EC50 is the concentration giving half of the maximal effect.
